From PMC6078800 (Nature biotechnology, 2018)

Tests used:
Mp-KYNase = biological target: T1, Mp-KYNase (Mucilaginibacter paludis, UniProt H1YAV1); assay: absorbance at […] nm, initial rates, Michaelis-Menten fit; type: biochemical; settings: DPBS pH 7.4; enzyme PLP-loaded; not PEGylated
T1 sequence (H1YAV1 1-429): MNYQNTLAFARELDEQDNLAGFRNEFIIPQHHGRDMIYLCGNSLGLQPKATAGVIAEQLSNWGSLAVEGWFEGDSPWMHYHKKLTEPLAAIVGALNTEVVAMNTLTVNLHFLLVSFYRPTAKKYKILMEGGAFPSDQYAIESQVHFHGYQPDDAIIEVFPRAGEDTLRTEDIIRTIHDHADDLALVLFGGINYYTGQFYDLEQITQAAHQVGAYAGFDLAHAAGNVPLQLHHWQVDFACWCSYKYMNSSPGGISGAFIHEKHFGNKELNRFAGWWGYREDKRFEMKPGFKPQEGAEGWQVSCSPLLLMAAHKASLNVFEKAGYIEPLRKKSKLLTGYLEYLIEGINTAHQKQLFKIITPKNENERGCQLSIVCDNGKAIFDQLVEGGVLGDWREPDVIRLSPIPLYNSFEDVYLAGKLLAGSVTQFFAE

Pf-KYNase = biological target: T2, Pf-KYNase (Pseudomonas fluorescens, UniProt P83788); assay: as above; type: biochemical; settings: DPBS pH 7.4; enzyme PLP-loaded; not PEGylated
T2 sequence (P83788 1-416): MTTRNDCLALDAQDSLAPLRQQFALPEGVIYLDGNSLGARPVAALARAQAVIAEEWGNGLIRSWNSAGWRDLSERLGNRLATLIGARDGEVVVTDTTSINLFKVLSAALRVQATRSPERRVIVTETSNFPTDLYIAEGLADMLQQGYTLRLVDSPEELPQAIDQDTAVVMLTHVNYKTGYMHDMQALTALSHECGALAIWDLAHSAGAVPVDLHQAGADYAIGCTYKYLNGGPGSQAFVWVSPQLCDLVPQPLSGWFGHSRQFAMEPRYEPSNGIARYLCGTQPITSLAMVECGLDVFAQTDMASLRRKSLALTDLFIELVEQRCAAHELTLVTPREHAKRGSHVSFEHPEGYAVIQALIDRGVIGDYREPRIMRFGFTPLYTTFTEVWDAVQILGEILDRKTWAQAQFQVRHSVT

**Q.** Which results are given for `Nc1ccccc1C(=O)C[C@H](N)C(=O)O` [kynurenine]?
**A.** KM (Mp-KYNase): kinetic parameters for the kynureninase enzymes against both kynurenine (Kyn, Sigma); KM (Pf-KYNase): kinetic parameters for the kynureninase enzymes against both kynurenine (Kyn, Sigma)
